What was measured:
Format in all cases: in vivo
[1] = test system: wheat (Triticum aestivum); assay: Test A greenhouse herbicide test, pre- and postemergence; conditions: Postemergence
Procedure, shortened: (§1)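 Seeds in loam–sand blend received a preemergence directed soil spray; plants at 2–10 cm, one- to two-leaf stage, received postemergence sprays. Compounds in a non-phytotoxic solvent with surfactant. After about 10 d in a greenhouse, injury rated visually versus untreated controls on a 0–100 scale (100 = complete control).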

kochia (Kochia scoparia) = assay: as above
Procedure, shortened: as §1

[2] = test system: ragweed (common ragweed, Ambrosia elatior); assay: as above
Procedure, shortened: as §1

[3] = test system: foxtail, giant (giant foxtail, Setaria faberii); assay: as above
Procedure, shortened: as §1

[4] = test system: pigweed (Amaranthus retroflexus); assay: as above
Procedure, shortened: as §1

corn (Zea mays) = assay: as above; conditions: Postemergence
Procedure, shortened: as §1

[5] = test system: ryegrass, Italian (Italian ryegrass, Lolium multiflorum); assay: as above
Procedure, shortened: as §1

[6] = test system: oilseed rape (Brassica napus); assay: Test C greenhouse herbicide test, pre- and postemergence
Procedure, shortened: (§2)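 Seeds sown in loam–sand blend treated preemergence; plants in peat-based medium sprayed postemergence at 2–18 cm (1- to 4-leaf stage); chemicals in non-phytotoxic solvent with surfactant. Greenhouse 13–15 d, then visual rating versus controls on 0–100 scale (0 no effect, 100 complete control).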

[7] = test system: ragweed (common ragweed, Ambrosia elatior); assay: as above
Procedure, shortened: as §2

[8] = test system: johnsongrass (Sorghum halepense); assay: as above
Procedure, shortened: as §2

[9] = 125 g ai/ha, 0 to 100 scale where 0 is no effect and 100 is complete control
[10] = 500 g ai/ha, 0 to 100 scale, 0 is no effect, 100 is complete control
[11] = Postemergence, 125 g ai/ha, 0 to 100 scale where 0 is no effect and 100 is complete control
[12] = Postemergence, 500 g ai/ha, 0 to 100 scale, 0 is no effect, 100 is complete control
[13] = Preemergence, 125 g ai/ha, 0 to 100 scale where 0 is no effect and 100 is complete control
[14] = Preemergence, 500 g ai/ha, 0 to 100 scale where 0 is no effect and 100 is complete control
[15] = Postemergence, 125 g ai/ha, scale 0 to 100, 0 is no effect, 100 is complete control
[16] = Postemergence, 250 g ai/ha, scale 0 to 100, 0 no effect, 100 complete control, 13 to 15 d
[17] = Preemergence, 31 g ai/ha, scale 0 to 100, 0 is no effect, 100 is complete control
[18] = Preemergence, 62 g ai/ha, scale 0 to 100, 0 is no effect, 100 is complete control
[19] = Preemergence, 125 g ai/ha, scale 0 to 100, 0 is no effect, 100 is complete control
[20] = Preemergence, 250 g ai/ha, scale 0 to 100, 0 no effect, 100 complete control
[21] = postemergence, 62 g ai/ha, scale 0 to 100, 0 no effect, 100 complete control
[22] = 125 g ai/ha, 0 to 100 scale, 0 no effect, 100 complete control
[23] = 500 g ai/ha, visual rating after approx. 10 d, 0 to 100 scale (0 no effect, 100 complete control)
[24] = Postemergence, 125 g ai/ha, 0 to 100 scale, 0 no effect, 100 complete control
[25] = Postemergence, 500 g ai/ha, visual rating after approx. 10 d, 0 to 100 scale (0 no effect, 100 complete control)
[26] = Preemergence, 125 g ai/ha, visual injury rating, 0 to 100 scale (0 no effect, 100 complete control), approx. 10 d
[27] = Postemergence, 31 g ai/ha, scale 0 to 100 (0 no effect, 100 complete control)
[28] = Postemergence, 62 g ai/ha, 0 to 100 scale (0 no effect, 100 complete control)
[29] = Postemergence, 250 g ai/ha, scale 0 to 100, 0 is no effect, 100 is complete control
[30] = postemergence, 125 g ai/ha, scale 0 to 100, 0 no effect, 100 complete control

Cc1sc2ccccc2c1-c1c(O)c(Cl)nn(C)c1=O [Compound 89]
Plant response rating, Wheat [1, 9]: 0 | Wheat plant response rating [1, 10]: 0 | Plant response rating, Kochia (kochia (Kochia scoparia); [11]): 80 | Kochia plant response rating (kochia (Kochia scoparia); [12]): 90 | Kochia plant response rating (kochia (Kochia scoparia); [13]): 70 | Plant response rating, Kochia (kochia (Kochia scoparia); [14]): 90 | Plant response rating, Ragweed [2, 11]: 80 | Ragweed plant response rating [2, 12]: 90 | Ragweed plant response rating [2, 13]: 80 | Plant response rating, Ragweed [2, 14]: 90 | Plant response rating, Foxtail, Giant [3, 11]: 70 | Foxtail, Giant plant response rating [3, 12]: 80 | Foxtail, Giant plant response rating [3, 13]: 50 | Plant response rating, Foxtail, Giant [3, 14]: 80 | Plant response rating, Pigweed [4, 11]: 80 | Pigweed plant response rating [4, 12]: 90 | Pigweed plant response rating [4, 13]: 100 | Plant response rating, Pigweed [4, 14]: 100 | Plant response rating, Corn (corn (Zea mays); [9]): 0 | Corn plant response rating (corn (Zea mays); [10]): 0 | Plant response rating, Ryegrass, Italian [5, 11]: 80 | Ryegrass, Italian plant response rating [5, 12]: 90 | Ryegrass, Italian plant response rating [5, 13]: 80 | Plant response rating, Ryegrass, Italian [5, 14]: 90 | Plant response rating, Oilseed Rape [6, 15]: 0 | Plant response rating, Oilseed Rape [6, 16]: 0 | Plant response rating, Oilseed Rape [6, 17]: 0 | Plant response rating, Oilseed Rape [6, 18]: 0 | Plant response rating, Oilseed Rape [6, 19]: 30 | Oilseed Rape plant response rating [6, 20]: 90 | Oilseed Rape plant response rating [6, 21]: 0 | Plant response rating, Ragweed [7, 15]: 90 | Plant response rating, Ragweed [7, 16]: 98 | Plant response rating, Ragweed [7, 17]: 30 | Plant response rating, Ragweed [7, 18]: 80 | Plant response rating, Ragweed [7, 19]: 80 | Ragweed plant response rating [7, 20]: 90 | Ragweed plant response rating [7, 21]: 90 | Plant response rating, Johnsongrass [8, 15]: 0 | Plant response rating, Johnsongrass [8, 16]: 5 | Plant response rating, Johnsongrass [8, 17]: 0 | Plant response rating, Johnsongrass [8, 18]: 75 | Plant response rating, Johnsongrass [8, 19]: 0 | Johnsongrass plant response rating [8, 20]: 5 | Johnsongrass plant response rating [8, 21]: 0

Cc1nn(C)c(=O)c(-c2c([N+](=O)[O-])ccc3ccccc23)c1O [Compound 165]
Plant response rating, Wheat [1, 22]: 0 | Plant response rating, Wheat [1, 23]: 0 | Plant response rating, Kochia (kochia (Kochia scoparia); [24]): 60 | Plant response rating, Kochia (kochia (Kochia scoparia); [25]): 90 | Plant response rating, Kochia (kochia (Kochia scoparia); [26]): 60 | Plant response rating, Kochia (kochia (Kochia scoparia); [14]): 100 | Plant response rating, Ragweed [2, 24]: 90 | Plant response rating, Ragweed [2, 25]: 90 | Plant response rating, Ragweed [2, 26]: 50 | Plant response rating, Ragweed [2, 14]: 90 | Plant response rating, Foxtail, Giant [3, 24]: 20 | Plant response rating, Foxtail, Giant [3, 25]: 50 | Plant response rating, Foxtail, Giant [3, 26]: 10 | Plant response rating, Foxtail, Giant [3, 14]: 40 | Plant response rating, Pigweed [4, 24]: 80 | Plant response rating, Pigweed [4, 25]: 80 | Plant response rating, Pigweed [4, 26]: 100 | Plant response rating, Pigweed [4, 14]: 90 | Plant response rating, Corn (corn (Zea mays); [22]): 0 | Plant response rating, Corn (corn (Zea mays); [23]): 20 | Plant response rating, Ryegrass, Italian [5, 24]: 80 | Plant response rating, Ryegrass, Italian [5, 25]: 90 | Plant response rating, Ryegrass, Italian [5, 26]: 40 | Plant response rating, Ryegrass, Italian [5, 14]: 100 | Plant response rating, Oilseed Rape [6, 27]: 0 | Oilseed Rape plant response rating [6, 28]: 0 | Plant response rating, Oilseed Rape [6, 29]: 5 | Oilseed Rape plant response rating [6, 30]: 0 | Plant response rating, Ragweed [7, 27]: 40 | Ragweed plant response rating [7, 28]: 55 | Plant response rating, Ragweed [7, 29]: 85 | Ragweed plant response rating [7, 30]: 75 | Plant response rating, Johnsongrass [8, 27]: 0 | Johnsongrass plant response rating [8, 28]: 5 | Plant response rating, Johnsongrass [8, 29]: 15 | Johnsongrass plant response rating [8, 30]: 10

Reference: patent publication US10597388B2, “Pyridazinone herbicides” (FMC CORPORATION, priority 2014, dated 2020)
